Reference: patent US20070128217A1 (priority 2003, published 2007)

Columns and labels:
[1] = system: control sera (pooled serum of ten healthy LUMC hospital workers; commercial negative donor pooled serum from the Dutch bloodbank); assay type: binding, human; design: Binding of Control serum LUMC to linear peptides / Binding of Control serum Blood-bank to linear peptides / Binding of Control serum LUMC to looped peptides / Binding of Control Serum Blood-Bank to Looped peptides / Binding of Control serum LUMC to linear peptides of the protein M of SARS-CoV Urbani / Binding of Control serum Blood-bank to linear peptides of the protein M of SARS-CoV Urbani / Binding of Control serum LUMC to looped peptides of the protein M of SARS-CoV Urbani / Binding of Control Serum Blood-Bank to Looped peptides of the protein M of SARS-CoV Urbani: unit not given here
[2] = system: rabbit serum obtained by immunizing a rabbit with the SARS-CoV strain Frankfurt 1; assay type: binding; design: Binding of a rabbit serum to linear peptides / Binding of a rabbit serum to looped peptides / Rabbit serum linear peptides / Rabbit serum looped peptides / Binding of a rabbit serum to linear peptides of protein N of SARS-CoV Urbani (Rabbit serum linear peptides) / Binding of a rabbit serum to looped/cyclic peptides of protein N of SARS-CoV Urbani (Rabbit serum looped peptides): unit not given here
[3] = system: antibodies in sera from SARS patients (sera 1a, 1b, 2, 6, 37, 62, London, SARS-yellow, SARS-green); assay type: binding, human; design: Binding of serum 6 to linear peptides of protein X1 of SARS-CoV Urbani / Binding of serum 37 to linear peptides of protein X1 of SARS-CoV Urbani / Binding of serum 6 to looped/cyclic peptide (PEPSCAN-ELISA) / Binding of serum 37 to looped/cyclic peptide (PEPSCAN-ELISA) / Binding of serum 37 to looped/cyclic peptides of protein X1 of SARS-CoV Urbani / Binding of serum 6 to linear peptides of protein X2 / Binding of serum 37 to linear peptides of protein X2 / Binding of serum 37 to looped/cyclic peptides of protein X2 of SARS-CoV Urbani / Binding of serum 6 to linear peptides of protein M of SARS-CoV Urbani / Binding of serum 37 to linear peptides of protein M of SARS-CoV Urbani / Binding of serum 6 to looped/cyclic peptides of protein M of SARS-CoV Urbani / Binding of serum 37 to looped/cyclic peptides of protein M of SARS-CoV Urbani / Binding of serum 6 to linear peptides of protein X3 of SARS-CoV Urbani / Binding of serum 37 to linear peptides of protein X3 of SARS-CoV Urbani / Binding of serum 37 to looped/cyclic peptides of protein X3 of SARS-CoV Urbani / Binding of serum 6 to linear peptides of protein X4 of SARS-CoV Urbani / Binding of serum 37 to linear peptides of protein X4 of SARS-CoV Urbani / Binding of serum 37 to looped/cyclic peptides of protein X4 of SARS-CoV Urbani / Binding of serum 6 to linear peptides of protein X5 of SARS-CoV Urbani / Binding of serum 37 to linear peptides of protein X5 of SARS-CoV Urbani / Binding of serum 37 to looped/cyclic peptides of protein X5 of SARS-CoV Urbani / Binding of serum 6 to linear peptides of protein N of SARS-CoV Urbani / Binding of serum 37 to linear peptides of protein N of SARS-CoV Urbani / Binding of serum 6 to linear peptide (PEPSCAN-ELISA) / Binding of serum 1a to looped/cyclic peptides of protein N of SARS-CoV Urbani / Binding of serum 1b to looped/cyclic peptides of protein N of SARS-CoV Urbani / Binding of serum 2 to looped/cyclic peptides of protein N of SARS-CoV Urbani / Binding of serum 6 to looped/cyclic peptides of protein N of SARS-CoV Urbani / Binding of serum 37 to looped/cyclic peptides of protein N of SARS-CoV Urbani / Binding of serum 62 to looped/cyclic peptides of protein N of SARS-CoV Urbani / Binding of serum London to looped/cyclic peptides of protein N of SARS-CoV Urbani / Binding of serum SARS-green to looped/cyclic peptides of protein N of SARS-CoV Urbani: unit not given here

ARSVSPKLFIRQEEV
Binding of Control Serum Blood-Bank to Looped peptides [1]: 0.7
Binding of Control serum Blood-bank to linear peptides [1]: 0.7
Binding of Control serum LUMC to linear peptides [1]: 0.6
Binding of Control serum LUMC to looped peptides [1]: 0.7
Rabbit serum linear peptides [2]: 0.3
Rabbit serum looped peptides [2]: 0.2
Binding of serum 1a to linear peptides of protein X4 of SARS-CoV Urbani [3]: 0.7
Binding of serum 1a to looped/cyclic peptides of protein X4 of SARS-CoV Urbani [3]: 0.8
Binding of serum 1b to linear peptides of protein X4 of SARS-CoV Urbani [3]: 0.6
Binding of serum 1b to looped/cyclic peptides of protein X4 of SARS-CoV Urbani [3]: 0.5
Binding of serum 2 to linear peptides of protein X4 of SARS-CoV Urbani [3]: 0.5
Binding of serum 2 to looped/cyclic peptides of protein X4 of SARS-CoV Urbani [3]: 0.7
Binding of serum 6 to linear peptides of protein X4 of SARS-CoV Urbani [3]: 0.6
Binding of serum 6 to looped/cyclic peptides of protein X4 of SARS-CoV Urbani [3]: 0.5
Binding of serum 37 to linear peptides of protein X4 of SARS-CoV Urbani [3]: 0.7
Binding of serum 37 to looped/cyclic peptides of protein X4 of SARS-CoV Urbani [3]: 0.7
Binding of serum 62 to linear peptides of protein X4 of SARS-CoV Urbani [3]: 0.7
Binding of serum 62 to looped/cyclic peptides of protein X4 of SARS-CoV Urbani [3]: 0.6
Binding of serum London to linear peptides of protein X4 of SARS-CoV Urbani [3]: 0.7
Binding of serum London to looped/cyclic peptides of protein X4 of SARS-CoV Urbani [3]: 0.3
Binding of serum SARS-green to linear peptides of protein X4 of SARS-CoV Urbani [3]: 0.6
Binding of serum SARS-green to looped/cyclic peptides of protein X4 of SARS-CoV Urbani [3]: 0.6
Binding of serum SARS-yellow to linear peptides of protein X4 of SARS-CoV Urbani [3]: 0.1
Binding of serum SARS-yellow to looped/cyclic peptides of protein X4 of SARS-CoV Urbani [3]: 0.5

ARTRSMWSFNPETNI
Binding of Control Serum Blood-Bank to Looped peptides of the protein M of SARS-CoV Urbani [1]: 0.6
Binding of Control serum Blood-bank to linear peptides of the protein M of SARS-CoV Urbani [1]: 0.7
Binding of Control serum LUMC to linear peptides of the protein M of SARS-CoV Urbani [1]: 0.9
Binding of Control serum LUMC to looped peptides of the protein M of SARS-CoV Urbani [1]: 0.7
Rabbit serum linear peptides [2]: 0.2
Rabbit serum looped peptides [2]: 0.3
Binding of serum 1a to linear peptides of protein M of SARS-CoV Urbani [3]: 0.9
Binding of serum 1a to looped/cyclic peptides of protein M of SARS-CoV Urbani [3]: 0.7
Binding of serum 1b to linear peptides of protein M of SARS-CoV Urbani [3]: 0.8
Binding of serum 1b to looped/cyclic peptides of protein M of SARS-CoV Urbani [3]: 0.1
Binding of serum 2 to linear peptides of protein M of SARS-CoV Urbani [3]: 0.6
Binding of serum 2 to looped/cyclic peptides of protein M of SARS-CoV Urbani [3]: 0.9
Binding of serum 6 to linear peptides of protein M of SARS-CoV Urbani [3]: 0.7
Binding of serum 6 to looped/cyclic peptides of protein M of SARS-CoV Urbani [3]: 0.6
Binding of serum 37 to linear peptides of protein M of SARS-CoV Urbani [3]: 0.6
Binding of serum 37 to looped/cyclic peptides of protein M of SARS-CoV Urbani [3]: 0.8
Binding of serum 62 to linear peptides of protein M of SARS-CoV Urbani [3]: 0.5
Binding of serum 62 to looped/cyclic peptides of protein M of SARS-CoV Urbani [3]: 0.8
Binding of serum London to linear peptides of protein M of SARS-CoV Urbani [3]: 0.4
Binding of serum London to looped/cyclic peptides of protein M of SARS-CoV Urbani [3]: 0.2
Binding of serum SARS-green to linear peptides of protein M of SARS-CoV Urbani [3]: 0.7
Binding of serum SARS-green to looped/cyclic peptides of protein M of SARS-CoV Urbani [3]: 0.1
Binding of serum SARS-yellow to linear peptides of protein M of SARS-CoV Urbani [3]: 0.3
Binding of serum SARS-yellow to looped/cyclic peptides of protein M of SARS-CoV Urbani [3]: 0.7

ATATIPLQASLPFGW
Binding of Control Serum Blood-Bank to Looped peptides [1]: 0.8
Binding of Control serum Blood-bank to linear peptides [1]: 0.9
Binding of Control serum LUMC to linear peptides [1]: 0.7
Binding of Control serum LUMC to looped peptides [1]: 0.7
Binding of a rabbit serum to linear peptides [2]: 0.1
Binding of a rabbit serum to looped peptides [2]: 0.6
Binding of serum 1a to linear peptides of protein X1 of SARS-CoV Urbani [3]: 0.9
Binding of serum 1a to looped/cyclic peptide (PEPSCAN-ELISA) [3]: 0.6
Binding of serum 1b to linear peptides of protein X1 of SARS-CoV Urbani [3]: 0.7
Binding of serum 1b to looped/cyclic peptide (PEPSCAN-ELISA) [3]: 0.5
Binding of serum 2 to linear peptides of protein X1 of SARS-CoV Urbani [3]: 0.7
Binding of serum 2 to looped/cyclic peptide (PEPSCAN-ELISA) [3]: 0.5
Binding of serum 6 to linear peptides of protein X1 of SARS-CoV Urbani [3]: 0.7
Binding of serum 6 to looped/cyclic peptide (PEPSCAN-ELISA) [3]: 0.5
Binding of serum 37 to linear peptides of protein X1 of SARS-CoV Urbani [3]: 0.7
Binding of serum 37 to looped/cyclic peptide (PEPSCAN-ELISA) [3]: 0.7
Binding of serum 62 to linear peptides of protein X1 of SARS-CoV Urbani [3]: 0.8
Binding of serum 62 to looped/cyclic peptide (PEPSCAN-ELISA) [3]: 0.7
Binding of serum London to linear peptides of protein X1 of SARS-CoV Urbani [3]: 0.4
Binding of serum London to looped/cyclic peptide (PEPSCAN-ELISA) [3]: 0.3
Binding of serum SARS-green to linear peptides of protein X1 of SARS-CoV Urbani [3]: 0.4
Binding of serum SARS-green to looped/cyclic peptide (PEPSCAN-ELISA) [3]: 0.3
Binding of serum SARS-yellow to linear peptides of protein X1 of SARS-CoV Urbani [3]: 0.5
Binding of serum SARS-yellow to looped/cyclic peptide (PEPSCAN-ELISA) [3]: 0.4

ATIPLQASLPFGWLV
Binding of Control Serum Blood-Bank to Looped peptides [1]: 0.7
Binding of Control serum Blood-bank to linear peptides [1]: 0.8
Binding of Control serum LUMC to linear peptides [1]: 0.5
Binding of Control serum LUMC to looped peptides [1]: 0.7
Binding of a rabbit serum to linear peptides [2]: 0.1
Binding of a rabbit serum to looped peptides [2]: 0.5
Binding of serum 1a to linear peptides of protein X1 of SARS-CoV Urbani [3]: 0.7
Binding of serum 1a to looped/cyclic peptide (PEPSCAN-ELISA) [3]: 0.6
Binding of serum 1b to linear peptides of protein X1 of SARS-CoV Urbani [3]: 0.5
Binding of serum 1b to looped/cyclic peptide (PEPSCAN-ELISA) [3]: 0.5
Binding of serum 2 to linear peptides of protein X1 of SARS-CoV Urbani [3]: 0.6
Binding of serum 2 to looped/cyclic peptide (PEPSCAN-ELISA) [3]: 0.6
Binding of serum 6 to linear peptides of protein X1 of SARS-CoV Urbani [3]: 0.6
Binding of serum 6 to looped/cyclic peptide (PEPSCAN-ELISA) [3]: 0.4
Binding of serum 37 to linear peptides of protein X1 of SARS-CoV Urbani [3]: 0.7
Binding of serum 37 to looped/cyclic peptide (PEPSCAN-ELISA) [3]: 0.7
Binding of serum 62 to linear peptides of protein X1 of SARS-CoV Urbani [3]: 0.7
Binding of serum 62 to looped/cyclic peptide (PEPSCAN-ELISA) [3]: 0.7
Binding of serum London to linear peptides of protein X1 of SARS-CoV Urbani [3]: 0.3
Binding of serum London to looped/cyclic peptide (PEPSCAN-ELISA) [3]: 0.3
Binding of serum SARS-green to linear peptides of protein X1 of SARS-CoV Urbani [3]: 0.2
Binding of serum SARS-green to looped/cyclic peptide (PEPSCAN-ELISA) [3]: 0.4
Binding of serum SARS-yellow to linear peptides of protein X1 of SARS-CoV Urbani [3]: 0.3
Binding of serum SARS-yellow to looped/cyclic peptide (PEPSCAN-ELISA) [3]: 0.3

ATSRTLSYYKLGASQ
Binding of Control Serum Blood-Bank to Looped peptides of the protein M of SARS-CoV Urbani [1]: 0.6
Binding of Control serum Blood-bank to linear peptides of the protein M of SARS-CoV Urbani [1]: 0.7
Binding of Control serum LUMC to linear peptides of the protein M of SARS-CoV Urbani [1]: 0.3
Binding of Control serum LUMC to looped peptides of the protein M of SARS-CoV Urbani [1]: 0.6
Rabbit serum linear peptides [2]: 0.6
Rabbit serum looped peptides [2]: 0.4
Binding of serum 1a to linear peptides of protein M of SARS-CoV Urbani [3]: 0.7
Binding of serum 1a to looped/cyclic peptides of protein M of SARS-CoV Urbani [3]: 0.8
Binding of serum 1b to linear peptides of protein M of SARS-CoV Urbani [3]: 0.5
Binding of serum 1b to looped/cyclic peptides of protein M of SARS-CoV Urbani [3]: 0.2
Binding of serum 2 to linear peptides of protein M of SARS-CoV Urbani [3]: 0.7
Binding of serum 2 to looped/cyclic peptides of protein M of SARS-CoV Urbani [3]: 0.6
Binding of serum 6 to linear peptides of protein M of SARS-CoV Urbani [3]: 0.3
Binding of serum 6 to looped/cyclic peptides of protein M of SARS-CoV Urbani [3]: 0.8
Binding of serum 37 to linear peptides of protein M of SARS-CoV Urbani [3]: 0.8
Binding of serum 37 to looped/cyclic peptides of protein M of SARS-CoV Urbani [3]: 0.6
Binding of serum 62 to linear peptides of protein M of SARS-CoV Urbani [3]: 0.7
Binding of serum 62 to looped/cyclic peptides of protein M of SARS-CoV Urbani [3]: 0.5
Binding of serum London to linear peptides of protein M of SARS-CoV Urbani [3]: 0.3
Binding of serum London to looped/cyclic peptides of protein M of SARS-CoV Urbani [3]: 0.3
Binding of serum SARS-green to linear peptides of protein M of SARS-CoV Urbani [3]: 0.2
Binding of serum SARS-green to looped/cyclic peptides of protein M of SARS-CoV Urbani [3]: 0.3
Binding of serum SARS-yellow to linear peptides of protein M of SARS-CoV Urbani [3]: 0.1
Binding of serum SARS-yellow to looped/cyclic peptides of protein M of SARS-CoV Urbani [3]: 0.7
